Reference: ChEMBL document CHEMBL3421576, “N-((1,3-Diphenyl-1H-pyrazol-4-yl)methyl)anilines: A novel class of anti-RSV agents” (Bioorg Med Chem Lett, 2015)

Assays:
[1] = Selectivity index, ratio of CC50 for African green monkey Vero 76 cells to EC50 for RSV infected in African green monkey Vero 76 cells
[2] = system: Coxsackievirus B5; assay: Antiviral activity against Coxsackievirus B5 infected in African green monkey Vero 76 cells after 3 days by plaque reduction assay; format: functional, organism-based; conditions: Enterovirus B, Vero, 72 h
[3] = system: Yellow fever virus; assay: Antiviral activity against YFV infected in hamster BHK21 cells assessed as protection against viral-induced cytopathogenecity after 3 to 4 days by MTT method; format: functional, organism-based, BHK-21; conditions: Yellow fever virus, BHK-21
[4] = Cytotoxicity against African green monkey Vero 76 cells assessed as cell viability after 48 to 96 hrs by MTT method; format: cell-based; conditions: chlorocebus sabaeus, Vero 76 cells
[5] = system: Bovine viral diarrhea virus 1; assay: Antiviral activity against BVDV infected in bovine MDBK cells assessed as protection against viral-induced cytopathogenecity after 3 to 4 days by MTT method; format: functional, organism-based; conditions: Bovine viral diarrhea virus isolates and strains, MDBK
[6] = system: Human immunodeficiency virus 1; assay: Antiviral activity against HIV1 infected in human MT4 cells assessed as protection against viral-induced cytopathogenecity after 4 days by MTT method; format: functional, organism-based; conditions: Human immunodeficiency virus 1, MT4, 96 h
[7] = Selectivity index, ratio of CC50 for bovine MDBK cells to EC50 for BVDV infected in bovine MDBK cells
[8] = system: Respiratory syncytial virus; assay: Antiviral activity against RSV infected in African green monkey Vero 76 cells after 5 days by plaque reduction assay; format: functional, organism-based; conditions: human respiratory syncytial virus, Vero, 120 h
[9] = system: Vesicular stomatitis virus; assay: Antiviral activity against VSV infected in African green monkey Vero 76 cells after 2 days by plaque reduction assay; format: functional, organism-based; conditions: Vesicular stomatitis virus, Vero, 48 h
[10] = Cytotoxicity against hamster BHK21 cells assessed as cell viability after 72 hrs by MTT method; format: cell-based, Mesocricetus auratus, BHK-21
[11] = system: Human alphaherpesvirus 1; assay: Antiviral activity against HSV1 infected in African green monkey Vero 76 cells after 3 days by plaque reduction assay; format: functional, organism-based; conditions: Human alphaherpesvirus 1, Vero, 72 h
[12] = system: Mammalian orthoreovirus 1; assay: Antiviral activity against Reovirus 1 infected in hamster BHK21 cells assessed as protection against viral-induced cytopathogenecity after 3 to 4 days by MTT method; format: functional, cell-based; conditions: Mammalian orthoreovirus 1, BHK-21
[13] = system: Vaccinia virus; assay: Antiviral activity against Vaccinia virus infected in African green monkey Vero 76 cells after 3 days by plaque reduction assay; format: functional, organism-based, Orthopoxvirus vaccinia; conditions: Orthopoxvirus vaccinia, Vero, 72 h
[14] = Cytotoxicity against bovine MDBK cells assessed as cell viability after 72 hrs by MTT method; format: cell-based, Bos taurus; conditions: cattle
[15] = Cytotoxicity against human MT4 cells assessed as cell viability after 96 hrs by MTT method; format: cell-based
[16] = system: Enterovirus C; assay: Antiviral activity against Poliovirus Sb-1 infected in African green monkey Vero 76 cells after 2 days by plaque reduction assay; format: functional, organism-based; conditions: Enterovirus C, Sb-1, Vero, 48 h
[17] = Selectivity index, ratio of CC50 for hamster BHK21 cells to EC50 for YFV infected in hamster BHK21 cells; parameters: species or system BHK-21

## Cc1ccc(NCc2cn(-c3ccccc3)nc2-c2ccc(Cl)cc2)cc1
[1]
  Ratio CC50/EC50: >7.7
[2]
  EC50: > 100 µM
[3]
  EC50: > 100 µM
[4]
  CC50: > 100 µM
[5]
  EC50: 55 µM
[6]
  EC50: > 100 µM
[7]
  Ratio CC50/EC50: >1.8
[8]
  EC50: 13 µM
[9]
  EC50: > 100 µM
[10]
  CC50 at 72 h: > 100 µM
[11]
  EC50: > 100 µM
[12]
  EC50: > 100 µM
[13]
  EC50: > 100 µM
[14]
  CC50 at 72 h: > 100 µM
[15]
  CC50 at 96 h: > 100 µM
[16]
  EC50: > 100 µM

## Cc1ccc(NCc2cn(-c3ccccc3)nc2-c2ccccc2)cc1
[1]
  Ratio CC50/EC50: >3.6
[2]
  EC50: > 100 µM
[3]
  EC50: 65 µM
[4]
  CC50: > 100 µM
[5]
  EC50: 53 µM
[17]
  Ratio CC50/EC50: >1.5
[6]
  EC50: > 100 µM
[7]
  Ratio CC50/EC50: >1.9
[8]
  EC50: 28 µM
[9]
  EC50: > 100 µM
[10]
  CC50 at 72 h: > 100 µM
[11]
  EC50: > 100 µM
[12]
  EC50: > 100 µM
[13]
  EC50: > 100 µM
[14]
  CC50 at 72 h: > 100 µM
[15]
  CC50 at 96 h: > 100 µM
[16]
  EC50: > 100 µM

## Cc1ccc(NCc2cn(-c3ccccc3)nc2-c2ccc(C(F)(F)F)cc2)cc1
[1]
  Ratio CC50/EC50: 3.3
[2]
  EC50: > 82 µM
[3]
  EC50: > 88 µM
[4]
  CC50: 82 µM
[5]
  EC50: 54 µM
[6]
  EC50: > 100 µM
[7]
  Ratio CC50/EC50: >1.8
[8]
  EC50: 25 µM
[9]
  EC50: > 82 µM
[10]
  CC50 at 72 h: 88 µM
[11]
  EC50: > 82 µM
[12]
  EC50: > 88 µM
[13]
  EC50: > 82 µM
[14]
  CC50 at 72 h: > 100 µM
[15]
  CC50 at 96 h: > 100 µM
[16]
  EC50: > 82 µM

## Brc1ccc(NCc2cn(-c3ccccc3)nc2-c2ccccc2)cc1
[1]
  Ratio CC50/EC50: 5.8
[2]
  EC50: > 52 µM
[3]
  EC50: 32 µM
[4]
  CC50: 52 µM
[5]
  EC50: 31 µM
[17]
  Ratio CC50/EC50: >3.1
[6]
  EC50: > 100 µM
[7]
  Ratio CC50/EC50: >3.2
[8]
  EC50: 9 µM
[9]
  EC50: > 52 µM
[10]
  CC50 at 72 h: > 100 µM
[11]
  EC50: > 52 µM
[12]
  EC50: > 100 µM
[13]
  EC50: > 52 µM
[14]
  CC50 at 72 h: > 100 µM
[15]
  CC50 at 96 h: > 100 µM
[16]
  EC50: > 52 µM
